Experimental data taken from paper PMC10829540, “Natural transaminase fusions for biocatalysis” (RSC Advances, 2024).

Key:
TfFusion = molecular target: T1, TfFusion (Thermincola carboxydiphila, UniProt A0A0L6W1G2); assay: HPLC conversion of […] to […], non-linear regression to substrate inhibition equation; assay type: biochemical; conditions: apparent, amine donor L-glutamate, 1.0 mM PLP, HEPES pH 7.7, 10% DMSO, 50 °C (conditions of Fig. 7F)
T1 construct: gene Tfer_2018; full-length fusion; N-terminal His6-tag, pET-28a(+), E. coli

PpKTFusion = molecular target: T2, PpKTFusion (Pseudomonas putida, UniProt Q88J67); assay: as above; assay type: biochemical; conditions: apparent, amine donor L-glutamate, 1.0 mM PLP, HEPES pH 7.7, 10% DMSO, 30 °C (conditions of Fig. 7F)
T2 construct: gene PP_2782; full-length fusion (N-terminal TAm 1-526, linker 527-562, C-terminal reductase 563-959); N-terminal His6-tag, pET-28a(+), E. coli
T2 sequence (Q88J67 1-959): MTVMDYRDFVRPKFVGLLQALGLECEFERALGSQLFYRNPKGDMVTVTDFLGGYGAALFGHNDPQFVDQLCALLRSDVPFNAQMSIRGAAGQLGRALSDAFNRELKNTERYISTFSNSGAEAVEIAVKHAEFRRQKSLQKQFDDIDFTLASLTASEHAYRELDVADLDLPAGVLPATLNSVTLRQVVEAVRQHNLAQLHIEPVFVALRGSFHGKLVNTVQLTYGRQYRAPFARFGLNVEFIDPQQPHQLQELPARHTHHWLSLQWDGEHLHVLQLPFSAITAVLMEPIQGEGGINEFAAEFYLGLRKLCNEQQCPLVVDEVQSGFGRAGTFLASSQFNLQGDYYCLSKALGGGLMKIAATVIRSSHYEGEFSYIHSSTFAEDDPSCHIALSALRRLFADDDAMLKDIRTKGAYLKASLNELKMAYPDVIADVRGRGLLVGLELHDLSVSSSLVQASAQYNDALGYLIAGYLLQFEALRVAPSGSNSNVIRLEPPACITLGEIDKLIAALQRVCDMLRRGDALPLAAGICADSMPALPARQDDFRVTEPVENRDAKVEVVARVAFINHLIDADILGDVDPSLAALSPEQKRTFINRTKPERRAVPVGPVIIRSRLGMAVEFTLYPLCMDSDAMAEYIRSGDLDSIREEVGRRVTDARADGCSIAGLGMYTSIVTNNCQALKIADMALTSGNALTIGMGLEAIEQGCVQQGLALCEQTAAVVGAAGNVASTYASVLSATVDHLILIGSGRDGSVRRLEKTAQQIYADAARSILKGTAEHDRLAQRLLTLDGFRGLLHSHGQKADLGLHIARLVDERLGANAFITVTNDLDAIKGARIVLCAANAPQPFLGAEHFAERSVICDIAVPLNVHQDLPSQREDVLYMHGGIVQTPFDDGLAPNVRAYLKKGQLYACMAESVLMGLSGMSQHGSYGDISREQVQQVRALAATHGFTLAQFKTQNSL

PpKTTAm = molecular target: T3, PpKTTAm (Pseudomonas putida, UniProt Q88J67); assay: as above; assay type: biochemical; conditions: apparent, amine donor L-glutamate, 1.0 mM PLP, HEPES pH 7.7, 10% DMSO, 30 °C (conditions of Fig. 7F)
T3 construct: gene PP_2782; truncated to N-terminal TAm domain (assigned residues 1-526); N-terminal His6-tag, pET-28a(+), E. coli
T3 sequence (Q88J67 1-526): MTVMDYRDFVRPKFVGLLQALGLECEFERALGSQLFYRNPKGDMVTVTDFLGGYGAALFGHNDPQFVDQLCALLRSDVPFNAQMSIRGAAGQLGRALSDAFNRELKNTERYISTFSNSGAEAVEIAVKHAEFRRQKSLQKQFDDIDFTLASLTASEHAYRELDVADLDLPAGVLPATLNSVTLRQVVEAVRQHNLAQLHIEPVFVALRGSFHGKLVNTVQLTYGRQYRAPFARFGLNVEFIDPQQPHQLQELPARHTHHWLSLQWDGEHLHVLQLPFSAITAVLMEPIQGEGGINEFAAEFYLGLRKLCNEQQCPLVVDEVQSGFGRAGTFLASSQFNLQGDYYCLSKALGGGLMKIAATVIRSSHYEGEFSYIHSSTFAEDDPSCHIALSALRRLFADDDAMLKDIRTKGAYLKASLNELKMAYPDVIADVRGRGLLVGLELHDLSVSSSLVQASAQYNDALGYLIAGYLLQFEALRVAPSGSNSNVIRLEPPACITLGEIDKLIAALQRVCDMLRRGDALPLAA

TfTAm = molecular target: T4, TfTAm (Thermincola carboxydiphila, UniProt A0A0L6W1G2); assay: HPLC conversion of […] to […], non-linear regression; assay type: biochemical; conditions: apparent; amine acceptor 3-phenylpropionaldehyde (10 mM), 1.0 mM PLP, HEPES pH 7.7, 10% DMSO, 50 °C (conditions of Fig. 7E); read-out: K ^app m
T4 construct: gene Tfer_2018; truncated to N-terminal TAm domain (borders only in ESI); N-terminal His6-tag, pET-28a(+), E. coli

purified protein [1] = substrate: N[C@@H](CCC(=O)O)C(=O)O; assay: purified protein; assay type: biochemical, Thermincola carboxydiphila; conditions: apparent, amine acceptor 3-phenylpropionaldehyde (10 mM), 1.0 mM PLP, HEPES pH 7.7, 10% DMSO, 50 °C (conditions of Fig. 7E)
purified protein [2] = substrate: O=CCCc1ccccc1; assay: purified protein; assay type: biochemical, Thermincola carboxydiphila; conditions: apparent, amine donor L-glutamate, 1.0 mM PLP, HEPES pH 7.7, 10% DMSO, 50 °C (conditions of Fig. 7F)

With `O=CCCc1ccccc1` [compound 13, 3-phenylpropionaldehyde] the “K ^app i” value (TfFusion) was 52.92 µM, the “K ^app i” value (PpKTFusion) was 3.37 µM and the “K ^app i” value (PpKTTAm) was 5.13 µM.

`N[C@@H](CCC(=O)O)C(=O)O` [compound 36, L-glutamate] showed a Km (TfTAm) of 9.57 mM.

B1: TfFusion (Thermincola carboxydiphila) (protein)
chain: MKFSSLNPTMDKLFECFKLDVAYVKGEGTYLYDQAGNKYLDFIAQYGAVPFGYNPPELVAAAKKYFDLSLPSMVQPSIPVKAVELAEMLLQLAPGEMAQATFCQSGAEAVEVAIKLARSTTGKPKILSTKNSFHGKTMGALSATGRDVYQKPFFTPVPGFEHIPFGDLDMLENKMRTEGKQIAAFLVEPIQGEGGIIVPPEGYLKNAEIICRKYGVLLAVDEIQTGLGRTGELFACDREGVEPDILLLSKALGGGLVPLGVCLSTRQAWNEEFGRLHSSTFANNNFTCAIGLAVLNKLLENGRQLINNAKSAGNYLLKNLEDINRQYPGVIKEIRGRGLMLGLEFNEFDGSESFSMKYLAEQGGFSPLLAGYLLNVHKVRVAPFLNNPMTLRLQPSLTVATVEIDRALHGLERVVKALYYQDHCELYSYIIGKEPGPIRDFRSEKKAVTGSELLPEEKPTEKFAFLIHYPSSEDVIKNNPSFKKASKDILEKLIDWEASLDAEPEVIVHLPAIKSKAGKIAEGWLIGIPYSGRHMMEMPRKDAVKVLVTALDKAKALGARIVGLGAYTSVVSRGGSDLQGKGIAVTSGNSYTIATAFDALIEGARLMGIDPAESTGCVIGATGSIGRVCAILLAEEIDKLVLVGNPEKEKTSLRRMEQLADEIYTRAFREILAYKGKVAKIKGIAKWLKGFLDRKRKDDPEVWNKLLTALENQGFSINGYIHENLAAKGKYSNPPVKITVNIKQALLQSDLIISASNSTNHLIGPGHLKPGSVICDVARPPDVSEAVLEQRKDVLVIEGGLVQYPDDICFGQNMGYEPGVNMACLSETMLLALEGTYRDFSIGLKIPVENVYYLRELAQRHGFKLATPWNKNGGVTPEVARMIKEAALKNENVEKIKTPKSS
notes: full-length fusion; N-terminal His6-tag, pET-28a(+), E. coli
Work on B1 yielded a Km (purified protein [1]) of 16.44 mM, a kcat (purified protein [1]) of 0.2672 s⁻¹ and a Km (purified protein [2]) of 50.61 mM. The kcat (purified protein [2]) was 1.171 s⁻¹.
